Experimental findings from ChEMBL document CHEMBL1201862, “PubChem BioAssay data set” (2004) are described below.

The subject of one test is INS1. Nature of the test: INS-1E survival protection against cytokine death – cell-based, luminescence, retest, dose response (AID 449756).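 Note: cell death triggered by IL-1 beta plus TNF-alpha plus IFN-gamma mixture; protective hits raise ATP signal compared with cytokine alone wells.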 In kind it is functional. To be noted: Rattus norvegicus.
A short description of test [1]: Trypanosoma cruzi growth suppression in host cells – NIH3T3 host cells, beta-gal luminescence, confirmation (AID 2044).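 Note: intracellular parasites grown in NIH/3T3 mouse fibroblasts as host cells; luminescent beta-galactosidase reporter signal from transgenic T. cruzi replicating inside host cells; inhibitors lower the luminescence signal.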 In kind it is functional, cell-based.
Test [2] is described as follows: Counterscreen for activators of the function of SWI/SNF related, matrix associated, actin dependent regulator of chromatin, subfamily a, member 2 (SMARCA2, BRM): Luminescence-based cell-based high throughput dose response assay to identify non-selective compounds using the VP16 reporter assay. In kind it is functional. A general note: A counterscreen serves to expose hits that act by an unwanted route or on another target.

Test [3] in a line: cells. The class given is functional, cell-based.
Test [4] has as its target SWI/SNF-related matrix-associated actin-dependent regulator of chromatin subfamily A member 2 (Homo sapiens, UniProt P51531). Nature of the test: Luminescence-based cell-based high throughput dose response assay to identify activators of the function of SWI/SNF related, matrix associated, actin dependent regulator of chromatin, subfamily a, member 2 (SMARCA2, BRM). The class given is functional.

Test [5] in a line: cells. In kind it is functional, cell-based. This is another data set of the same source.
The target of test [6] is T1, Heat shock factor protein 1 (Mus musculus, UniProt P38532).
T1 sequence (P38532 whole entry): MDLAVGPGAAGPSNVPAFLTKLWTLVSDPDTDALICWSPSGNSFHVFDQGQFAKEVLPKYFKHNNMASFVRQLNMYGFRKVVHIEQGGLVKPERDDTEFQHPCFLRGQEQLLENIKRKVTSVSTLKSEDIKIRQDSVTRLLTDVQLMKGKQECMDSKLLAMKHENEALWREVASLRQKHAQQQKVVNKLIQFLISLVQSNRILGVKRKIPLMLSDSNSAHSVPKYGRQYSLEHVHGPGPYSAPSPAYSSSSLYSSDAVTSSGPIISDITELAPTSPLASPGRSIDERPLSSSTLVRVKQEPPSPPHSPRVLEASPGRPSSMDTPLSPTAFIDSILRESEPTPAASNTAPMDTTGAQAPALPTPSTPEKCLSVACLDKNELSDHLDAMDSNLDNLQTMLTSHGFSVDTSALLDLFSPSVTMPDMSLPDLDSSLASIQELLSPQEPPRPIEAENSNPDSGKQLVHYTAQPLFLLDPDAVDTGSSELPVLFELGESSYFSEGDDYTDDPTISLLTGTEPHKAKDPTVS
Nature of the test: enhancement of HSF1-driven luciferase signal – cell-based, NIH3T3, luminescence, dose retest, confirmation (AID 435004).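 Note: stress induced by proteasome inhibitor MG132 added 30 min after compound; luciferase reporter driven by HSF1 response element in NIH3T3 cells; actives raise luminescence as potentiators of the MG132 stress response.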 The class given is functional.

Test [7] deals with T2, Microphthalmia-associated transcription factor (Homo sapiens, UniProt O75030).
T2 sequence (O75030 whole entry): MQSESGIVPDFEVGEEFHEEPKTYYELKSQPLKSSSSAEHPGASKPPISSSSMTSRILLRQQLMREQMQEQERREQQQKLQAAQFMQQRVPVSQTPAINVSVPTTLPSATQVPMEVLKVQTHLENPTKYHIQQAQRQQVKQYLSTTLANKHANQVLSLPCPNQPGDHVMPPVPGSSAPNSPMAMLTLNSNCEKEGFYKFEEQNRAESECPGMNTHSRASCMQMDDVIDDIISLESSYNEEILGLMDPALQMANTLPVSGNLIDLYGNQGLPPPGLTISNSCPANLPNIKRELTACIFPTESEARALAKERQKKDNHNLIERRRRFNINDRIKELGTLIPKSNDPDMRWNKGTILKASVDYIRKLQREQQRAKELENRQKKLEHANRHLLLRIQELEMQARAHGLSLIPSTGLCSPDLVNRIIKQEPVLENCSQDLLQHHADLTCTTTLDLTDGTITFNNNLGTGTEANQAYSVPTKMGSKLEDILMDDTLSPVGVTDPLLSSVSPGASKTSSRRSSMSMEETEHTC
The experiment in a line: reducers of TRPM1 reporter luminescence, concentration series – cell-based, SK-MEL-5, cherry-picked, set 3, MITF inhibitor project, dose response (AID 493073).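 Note: SK-MEL-5 melanoma cells with luciferase driven by the MITF target TRPM1 promoter.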 The class given is functional.

A short description of test [8]: Luminescence-based cell-based high throughput dose response assay to identify activators of the DAF-12 from the parasite S. stercoralis (ssDAF-12). The class given is functional.
The target of test [9] is Long-chain-fatty-acid--AMP ligase FadD28 (Mycobacterium tuberculosis, UniProt P9WQ59). The experiment in a line: Fluorescence polarization aasay to screen for inhibitors that compete for the binding of FadD28 to a bisubstrate Measured in Biochemical System Using Plate Reader - 2147-01_Inhibitor_Dose_CherryPick_Activity. In kind it is functional, Mycobacterium tuberculosis H37Rv. (Fluorescence polarisation rises when a labelled molecule tumbles more slowly, as on binding a larger partner.)

The target in a further test is T3, Estrogen receptor (Homo sapiens, UniProt P03372).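 Note: potency for inhibiting coactivator peptide recruitment to the receptor.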
T3 sequence (P03372 whole entry): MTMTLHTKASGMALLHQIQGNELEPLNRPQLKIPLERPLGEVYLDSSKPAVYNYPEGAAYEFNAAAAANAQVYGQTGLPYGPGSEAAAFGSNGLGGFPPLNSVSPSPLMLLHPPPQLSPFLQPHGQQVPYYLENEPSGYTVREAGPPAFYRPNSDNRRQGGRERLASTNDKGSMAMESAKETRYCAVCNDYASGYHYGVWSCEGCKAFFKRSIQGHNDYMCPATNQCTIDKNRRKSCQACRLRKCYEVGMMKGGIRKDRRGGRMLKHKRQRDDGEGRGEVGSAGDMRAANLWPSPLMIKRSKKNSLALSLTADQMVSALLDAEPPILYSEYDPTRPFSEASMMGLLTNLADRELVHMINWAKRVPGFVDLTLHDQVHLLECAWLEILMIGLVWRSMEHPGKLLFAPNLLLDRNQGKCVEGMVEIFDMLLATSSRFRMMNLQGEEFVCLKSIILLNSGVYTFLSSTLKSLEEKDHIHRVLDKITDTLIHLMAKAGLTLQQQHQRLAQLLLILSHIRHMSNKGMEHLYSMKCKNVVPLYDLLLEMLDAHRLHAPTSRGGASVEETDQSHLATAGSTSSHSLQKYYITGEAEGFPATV

Test [10] in a line: cells. The class given is functional, cell-based. Particulars: HEK-CNG.
For a further test, the target named is Galanin receptor type 3 (Homo sapiens, UniProt O60755). Nature of the test: Fluorescence-based cell-based primary high throughput dose response assay to identify antagonists of the Galanin Receptor 3 (GalR3). The class given is functional.
In test [11] the target is T4, COUP transcription factor 2 (Homo sapiens, UniProt P24468).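 Note: HEK293 cells transiently cotransfected with COUP-TFII expression vector and reporter; luciferase reporter luminescence driven by COUP-TFII from the pX2-168 reporter plasmid.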
T4 sequence (P24468 whole entry): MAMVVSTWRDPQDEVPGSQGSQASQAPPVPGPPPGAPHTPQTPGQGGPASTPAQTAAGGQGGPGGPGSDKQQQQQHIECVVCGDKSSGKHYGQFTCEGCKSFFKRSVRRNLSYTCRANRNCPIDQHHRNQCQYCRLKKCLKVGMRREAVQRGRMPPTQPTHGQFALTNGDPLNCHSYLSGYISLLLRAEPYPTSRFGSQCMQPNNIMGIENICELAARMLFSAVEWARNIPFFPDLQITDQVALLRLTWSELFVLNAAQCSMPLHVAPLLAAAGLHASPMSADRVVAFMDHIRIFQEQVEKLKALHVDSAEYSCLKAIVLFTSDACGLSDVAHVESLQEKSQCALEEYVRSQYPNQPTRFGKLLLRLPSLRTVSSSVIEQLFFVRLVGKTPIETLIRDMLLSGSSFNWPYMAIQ
The experiment in a line: Luminescence-based cell-based high throughput dose response assay to identify inhibitors of COUP-TFII (NR2F2). In kind it is functional.

Test [12] can be described thus: cytotoxicity in HEK293 background cells – cell-based, dry powder, set 2, counter-screen for EBV LMP1 inhibitor project, dose response (AID 624374). In kind it is functional.
Test [13] in a line: NIH3T3 cell viability loss – ATP luminescence, mouse fibroblasts, counter-screen, dose response (AID 2010).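 Note: cells exposed to compound for about 90 hours before reading.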 In kind it is functional, cell-based.
Test [14] addresses T5, DNA repair protein RAD52 homolog (Homo sapiens, UniProt P43351).
T5 sequence (P43351 whole entry): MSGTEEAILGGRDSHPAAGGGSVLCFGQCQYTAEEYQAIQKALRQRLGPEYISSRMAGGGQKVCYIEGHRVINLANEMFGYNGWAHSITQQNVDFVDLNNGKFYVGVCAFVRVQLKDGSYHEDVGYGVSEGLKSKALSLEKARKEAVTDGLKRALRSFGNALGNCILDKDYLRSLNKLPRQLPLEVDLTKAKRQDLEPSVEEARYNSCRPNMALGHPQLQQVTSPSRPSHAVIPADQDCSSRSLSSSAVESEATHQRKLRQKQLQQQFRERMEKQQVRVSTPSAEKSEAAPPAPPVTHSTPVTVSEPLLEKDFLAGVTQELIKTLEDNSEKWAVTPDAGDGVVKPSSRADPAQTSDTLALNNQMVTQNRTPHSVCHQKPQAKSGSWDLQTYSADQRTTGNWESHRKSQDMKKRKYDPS
The class given is functional, biochemical.

A short description of test [15]: viability loss in HeLa cells – cytotoxicity control for MgcRacGAP inhibitor project, dose response (AID 624300). In kind it is functional.
Test [16] concerns the target T6, Rac GTPase-activating protein 1 (Homo sapiens, UniProt Q9H0H5).
T6 sequence (Q9H0H5 whole entry): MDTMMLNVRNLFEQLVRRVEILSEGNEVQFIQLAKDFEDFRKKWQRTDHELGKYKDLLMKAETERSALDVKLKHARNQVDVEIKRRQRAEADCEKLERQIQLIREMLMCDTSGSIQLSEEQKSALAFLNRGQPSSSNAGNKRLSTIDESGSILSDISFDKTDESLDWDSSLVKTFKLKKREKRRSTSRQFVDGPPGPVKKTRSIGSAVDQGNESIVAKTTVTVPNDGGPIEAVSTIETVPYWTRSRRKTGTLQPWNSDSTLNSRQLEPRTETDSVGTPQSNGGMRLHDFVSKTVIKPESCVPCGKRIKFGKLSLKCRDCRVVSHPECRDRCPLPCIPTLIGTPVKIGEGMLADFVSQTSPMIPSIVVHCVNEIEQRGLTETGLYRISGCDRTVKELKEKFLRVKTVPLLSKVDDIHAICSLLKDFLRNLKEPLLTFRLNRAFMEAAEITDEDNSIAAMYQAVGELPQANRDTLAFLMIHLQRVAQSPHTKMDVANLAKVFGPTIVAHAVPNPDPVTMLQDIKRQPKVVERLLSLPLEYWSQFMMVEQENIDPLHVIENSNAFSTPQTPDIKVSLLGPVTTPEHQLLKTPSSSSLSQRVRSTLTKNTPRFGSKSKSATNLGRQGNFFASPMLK
The experiment in a line: blockers of MgcRacGAP-driven Rac1 GTP hydrolysis – biochemical, ADP Hunter fluorescence, primary and confirmatory, confirmation (AID 624330). In kind it is functional.

SMILES strings stand for the structures. Active and inactive are the calls of the source.

Chain of SWI/SNF-related matrix-associated actin-dependent regulator of chromatin subfamily A member 2 (P51531 whole entry): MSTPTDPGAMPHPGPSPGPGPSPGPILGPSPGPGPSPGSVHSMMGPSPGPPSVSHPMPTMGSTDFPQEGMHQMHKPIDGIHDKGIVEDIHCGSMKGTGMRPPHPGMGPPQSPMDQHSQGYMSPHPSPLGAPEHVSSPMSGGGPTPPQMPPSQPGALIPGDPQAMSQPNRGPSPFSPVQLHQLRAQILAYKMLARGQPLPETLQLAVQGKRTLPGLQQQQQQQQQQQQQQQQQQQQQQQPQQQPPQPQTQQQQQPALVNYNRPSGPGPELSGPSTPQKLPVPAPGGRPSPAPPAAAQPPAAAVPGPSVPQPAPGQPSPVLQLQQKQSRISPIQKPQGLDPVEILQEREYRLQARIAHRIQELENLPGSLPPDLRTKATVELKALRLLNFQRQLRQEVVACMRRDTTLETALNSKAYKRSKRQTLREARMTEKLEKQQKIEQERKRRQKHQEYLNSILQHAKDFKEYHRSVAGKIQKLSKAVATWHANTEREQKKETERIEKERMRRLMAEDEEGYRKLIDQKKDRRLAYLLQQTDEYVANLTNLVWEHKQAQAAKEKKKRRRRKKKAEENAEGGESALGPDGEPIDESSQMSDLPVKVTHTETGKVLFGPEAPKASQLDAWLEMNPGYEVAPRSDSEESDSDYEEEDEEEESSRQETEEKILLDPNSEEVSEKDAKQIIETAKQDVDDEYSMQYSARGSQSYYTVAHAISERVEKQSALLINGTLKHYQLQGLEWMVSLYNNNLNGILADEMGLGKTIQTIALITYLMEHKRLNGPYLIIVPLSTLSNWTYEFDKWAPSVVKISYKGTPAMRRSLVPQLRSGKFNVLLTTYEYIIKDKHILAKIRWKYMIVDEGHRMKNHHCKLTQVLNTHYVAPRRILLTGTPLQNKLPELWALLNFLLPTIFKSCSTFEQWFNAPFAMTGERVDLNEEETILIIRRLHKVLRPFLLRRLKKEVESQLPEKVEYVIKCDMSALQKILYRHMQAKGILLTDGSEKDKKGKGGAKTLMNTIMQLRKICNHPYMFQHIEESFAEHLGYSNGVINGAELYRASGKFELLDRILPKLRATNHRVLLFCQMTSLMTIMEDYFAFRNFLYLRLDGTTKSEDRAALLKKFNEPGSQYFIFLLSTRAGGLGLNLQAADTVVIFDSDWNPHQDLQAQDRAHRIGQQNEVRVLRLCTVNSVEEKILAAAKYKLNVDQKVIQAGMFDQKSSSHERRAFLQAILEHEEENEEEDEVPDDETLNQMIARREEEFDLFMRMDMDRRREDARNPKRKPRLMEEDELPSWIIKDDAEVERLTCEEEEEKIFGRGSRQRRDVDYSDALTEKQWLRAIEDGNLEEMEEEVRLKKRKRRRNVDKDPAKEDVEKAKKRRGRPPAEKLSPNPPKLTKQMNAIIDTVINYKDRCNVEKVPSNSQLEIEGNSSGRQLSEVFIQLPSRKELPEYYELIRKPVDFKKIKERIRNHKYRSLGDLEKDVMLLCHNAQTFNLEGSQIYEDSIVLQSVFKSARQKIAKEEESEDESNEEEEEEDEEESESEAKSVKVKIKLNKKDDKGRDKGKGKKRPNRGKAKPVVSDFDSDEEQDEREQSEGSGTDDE
Chain of Galanin receptor type 3 (O60755 whole entry): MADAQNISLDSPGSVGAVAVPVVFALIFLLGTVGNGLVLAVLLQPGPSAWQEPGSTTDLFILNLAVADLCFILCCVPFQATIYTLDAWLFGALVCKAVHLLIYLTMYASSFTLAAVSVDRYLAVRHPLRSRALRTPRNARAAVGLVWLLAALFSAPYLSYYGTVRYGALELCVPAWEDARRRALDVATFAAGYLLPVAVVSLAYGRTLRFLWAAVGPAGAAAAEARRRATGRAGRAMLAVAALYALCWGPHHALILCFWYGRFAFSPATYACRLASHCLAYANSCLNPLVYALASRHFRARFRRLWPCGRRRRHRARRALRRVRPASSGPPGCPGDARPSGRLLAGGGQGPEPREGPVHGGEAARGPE
Chain of Long-chain-fatty-acid--AMP ligase FadD28 (P9WQ59 whole entry): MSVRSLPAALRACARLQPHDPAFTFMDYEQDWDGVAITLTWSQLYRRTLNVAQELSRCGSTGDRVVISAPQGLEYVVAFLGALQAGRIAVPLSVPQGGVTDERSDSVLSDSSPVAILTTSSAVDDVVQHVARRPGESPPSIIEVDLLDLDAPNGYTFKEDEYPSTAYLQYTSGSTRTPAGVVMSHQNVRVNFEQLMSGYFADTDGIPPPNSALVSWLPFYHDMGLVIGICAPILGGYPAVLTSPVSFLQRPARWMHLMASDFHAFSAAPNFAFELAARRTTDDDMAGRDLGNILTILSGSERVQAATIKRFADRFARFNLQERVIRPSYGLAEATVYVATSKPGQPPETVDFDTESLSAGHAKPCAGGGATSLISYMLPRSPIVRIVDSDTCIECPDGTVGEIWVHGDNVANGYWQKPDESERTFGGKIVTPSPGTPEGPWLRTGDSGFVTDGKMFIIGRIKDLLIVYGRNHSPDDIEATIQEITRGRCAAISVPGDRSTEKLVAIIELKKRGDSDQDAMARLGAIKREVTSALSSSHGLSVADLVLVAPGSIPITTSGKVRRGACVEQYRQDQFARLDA

Consider `CCN(CC)CCn1nc2c3c(cccc3c1=O)-c1ccccc1-2`, for which the AC50 is 2.4 µM (active) in the test on INS1 and 5.92 µM (active) in test [7]. For the same molecule, the 50% effective concentration (EC50) is 1.46 µM (active) in [1]; > 91.2 µM (inactive) in test [2]; 41 µM (active) in “cells [3]”; > 91.2 µM (inactive) in test [4]; > 350 µM (not active) in “cells [5]”; > 260 µM (inactive) in test [6]. The IC50 in [8] was > 67.5 µM (inactive).
`CCc1cccc2c(C(=O)Cn3nnc(-c4ccc(OC)c(OC)c4)n3)c[nH]c12`: in [9], the AC50 is 40.8 µM (active). Moreover, the IC50 at Estrogen receptor is 10.3 µM (active).
Consider `Nc1nc2ccccc2cc1C(=O)NCc1ccc(-c2ccccc2)cc1`, for which, in the test “cells [10]”, the EC50 was > 29.9 µM (inactive). In addition, the IC50 is 0.392 µM (active) at Galanin receptor type 3 and 2.01 µM (active) in test [11].
Molecule `Cc1noc(C)c1S(=O)(=O)Nc1ccc2c(c1)C(=O)N([C@H](C)CO)C[C@H](C)[C@H](CN(C)Cc1ccc(C(F)(F)F)cc1)OCCCC[C@H](C)O2` showed an AbsAC35 in test [12] of 76.4 µM.
As for `COc1ccccc1CNC(=O)C[C@H]1C[C@@H]2c3cc(NC(=O)CN(C)C)ccc3O[C@@H]2[C@@H](CO)O1`, in test [12], the AbsAC35 is 106.52 µM.
As for `COc1ccc(/C=N/Nc2cc(C)nc3c(C)cccc23)cc1`, the EC50 in [13] is > 60 µM (not active); in test [1] it was 1.14 µM (active); in [2] it was > 91.2 µM (inactive); in test [4] it was > 91.2 µM (inactive). The AC50 in test [14] was 2.28 µM (active). Moreover, the 50% cytotoxic concentration (CC50) in test [15] was 31.6 µM (active). In test [16], the IC50 was 68.9 µM (active).

What is called AC50 is the concentration at which the activity in the assay is half-maximal. What is called EC50 is the concentration at which the effect is half-maximal. The IC50 is the concentration at which inhibition is half-maximal. Broadly, the CC50 is the concentration at which the toxic effect on the cells reaches its halfway point.
